Values after ≈ are worked out from the molar mass of the structure shown. Where two headings read alike, the source gives them in different places.
Legend:
[1] = test system: Candida albicans CCM 8320, ATCC 24433; test: Antifungal microdilution broth MIC, CA
[2] = test system: HepG2 cell line; test: Cytotoxicity CellTiter 96, HepG2; type: cell-based, human; conditions: Homo sapiens, HepG2, 24 h, 24 h incubation; ^c compound precipitated in the testing medium; ^d over the limit of tested concentrations
[3] = test system: Candida tropicalis CCM 8264, ATCC 750; test: Antifungal microdilution broth MIC, CT
[4] = test system: Aspergillus flavus CCM 8363; test: Antifungal microdilution broth MIC, AFla
[5] = test system: Aspergillus fumigatus ATCC 204305; test: Antifungal microdilution broth MIC, AF
[6] = test system: Lichtheimia corymbifera CCM 8077; test: Antifungal microdilution broth MIC, LC
[7] = test system: Mycolicibacterium aurum DSM 43999; test: Antimycobacterial microdilution broth MIC (resazurin), M. aurum; type: cell-based; conditions: DSM43999, read-out: MIC M. aurum
[8] = test system: Staphylococcus epidermidis CCM 4418, ATCC 12228; test: Antibacterial microdilution broth MIC, SE; type: cell-based
[9] = test system: Candida parapsilosis CCM 8260, ATCC 22019; test: Antifungal microdilution broth MIC, CP; conditions: Lodderomyces parapsilosis
[10] = test system: Mycobacterium tuberculosis H37Ra; test: Antimycobacterial microdilution broth MIC (resazurin), Mtb H37Ra; type: cell-based; conditions: for MIC: Mycobacterium tuberculosis, H37RA, read-out: MIC Mtb H37Ra; for SI (selectivity index): SI = HepG2 IC50 (μM)/MIC MtbH37Ra (μM), calculated for compounds with MIC ≤ 31.25 μg/mL
[11] = test system: Trichophyton interdigitale CCM 8377, ATCC 9533; test: Antifungal microdilution broth MIC, TI; conditions: Trichophyton interdigitale
[12] = test system: Candida krusei CCM 8271, ATCC 6258; test: Antifungal microdilution broth MIC, CK; conditions: Pichia kudriavzevii
[13] = test system: Escherichia coli CCM 3954, ATCC 25922; test: Antibacterial microdilution broth MIC, EC; type: cell-based
[14] = test system: Enterococcus faecalis CCM 4224, ATCC 29212; test: Antibacterial microdilution broth MIC, EF; type: cell-based
[15] = test system: Pseudomonas aeruginosa CCM 3955, ATCC 27853; test: Antibacterial microdilution broth MIC, PA; type: cell-based
[16] = test system: Acinetobacter baumannii DSM 30007, ATCC 19606; test: Antibacterial microdilution broth MIC, ACI; type: cell-based
[17] = test system: Mycolicibacterium smegmatis DSM 43465; test: Antimycobacterial microdilution broth MIC (resazurin), M. smegmatis; type: cell-based; conditions: DSM43465, read-out: MIC M. smegmatis
[18] = test system: Staphylococcus aureus subsp. aureus CCM 4750, ATCC 43300 (MRSA); test: Antibacterial microdilution broth MIC, MRSA; type: cell-based; conditions: Staphylococcus aureus
[19] = test system: Staphylococcus aureus CCM 4223, ATCC 29213; test: Antibacterial microdilution broth MIC, SA; type: cell-based; conditions: Staphylococcus aureus
[20] = test system: Klebsiella pneumoniae CCM 4415, ATCC 10031; test: Antibacterial microdilution broth MIC, KP
[21] = CCM8363, 24 h, read-out: MIC AFla 24h
[22] = CCM8363, 48 h, read-out: MIC AFla 48h
[23] = ATCC204305, 24 h, read-out: MIC AF 24h
[24] = ATCC204305, 48 h, read-out: MIC AF 48h
[25] = CCM8077, 24 h, read-out: MIC LC 24h
[26] = CCM8077, 48 h, read-out: MIC LC 48h

SMILES	MIC ([1]; 24 h, read-out: MIC CA 24h)	MIC ([1]; 48 h, read-out: MIC CA 48h)	IC50 [2]	MIC ([3]; 24 h, read-out: MIC CT 24h)	MIC ([3]; 48 h, read-out: MIC CT 48h)	MIC [4, 21]	MIC [4, 22]	MIC [5, 23]	MIC [5, 24]	MIC [6, 25]	MIC [6, 26]	MIC [7]	MIC ([8]; 24 h, read-out: MIC SE 24h)	MIC ([8]; 48 h, read-out: MIC SE 48h)	MIC ([9]; 24 h, read-out: MIC CP 24h)	MIC ([9]; 48 h, read-out: MIC CP 48h)	MIC ([10]; Calculated from MIC (μg/mL))	MIC [10]	MIC ([11]; 72 h, read-out: MIC TI 72h)	MIC ([11]; 120 h, read-out: MIC TI 120h)	further results
O=C(Cc1ccc(Cl)cc1)Nc1ccccn1 [Compound 19]	> 500 µM	> 500 µM	333 µM	> 500 µM	> 500 µM	> 500 µM	> 500 µM	> 500 µM	> 500 µM	> 500 µM	> 500 µM	> 500 µg/mL	125 µM (≈ 30.8 µg/mL)	125 µM (≈ 30.8 µg/mL)	500 µM (≈ 123 µg/mL)	500 µM (≈ 123 µg/mL)	127 µM	31.2 µg/mL	250 µM (≈ 61.7 µg/mL)	250 µM (≈ 61.7 µg/mL)	SI (selectivity index) [10]: 2.6; MIC ([12]; 24 h, read-out: MIC CK 24h): 500 µM (≈ 123 µg/mL); MIC ([12]; 48 h, read-out: MIC CK 48h): 500 µM (≈ 123 µg/mL); MIC ([13]; 24 h, read-out: MIC EC 24h): > 500 µM; MIC ([13]; 48 h, read-out: MIC EC 48h): > 500 µM; MIC ([14]; 24 h, read-out: MIC EF 24h): > 500 µM; MIC ([14]; 48 h, read-out: MIC EF 48h): > 500 µM; MIC ([15]; 24 h, read-out: MIC PA 24h): > 500 µM; MIC ([15]; 48 h, read-out: MIC PA 48h): > 500 µM; MIC ([16]; 24 h, read-out: MIC ACI 24h): > 500 µM; MIC ([16]; 48 h, read-out: MIC ACI 48h): > 500 µM; MIC [17]: 31.2 µg/mL (≈ 127 µM); MIC ([18]; 24 h, read-out: MIC MRSA 24h): > 500 µM; MIC ([18]; 48 h, read-out: MIC MRSA 48h): > 500 µM; MIC ([19]; 24 h, read-out: MIC SA 24h): 500 µM (≈ 123 µg/mL); MIC ([19]; 48 h, read-out: MIC SA 48h): 500 µM (≈ 123 µg/mL); MIC KP 24h [20]: > 500 µM; MIC KP 48h [20]: > 500 µM
O=C(Cc1ccccc1C(F)(F)F)Nc1ccccn1 [Compound 22]	> 500 µM	> 500 µM	445 µM	> 500 µM	> 500 µM	> 500 µM	> 500 µM	500 µM (≈ 140 µg/mL)	> 500 µM	500 µM (≈ 140 µg/mL)	> 500 µM	250 µg/mL (≈ 892 µM)	> 500 µM	> 500 µM	> 500 µM	> 500 µM	446 µM	125 µg/mL	500 µM (≈ 140 µg/mL)	500 µM (≈ 140 µg/mL)	MIC ([12]; 24 h, read-out: MIC CK 24h): > 500 µM; MIC ([12]; 48 h, read-out: MIC CK 48h): > 500 µM; MIC ([13]; 24 h, read-out: MIC EC 24h): > 500 µM; MIC ([13]; 48 h, read-out: MIC EC 48h): > 500 µM; MIC ([14]; 24 h, read-out: MIC EF 24h): > 500 µM; MIC ([14]; 48 h, read-out: MIC EF 48h): > 500 µM; MIC ([15]; 24 h, read-out: MIC PA 24h): > 500 µM; MIC ([15]; 48 h, read-out: MIC PA 48h): > 500 µM; MIC ([16]; 24 h, read-out: MIC ACI 24h): > 500 µM; MIC ([16]; 48 h, read-out: MIC ACI 48h): > 500 µM; MIC [17]: 250 µg/mL (≈ 892 µM); MIC ([18]; 24 h, read-out: MIC MRSA 24h): > 500 µM; MIC ([18]; 48 h, read-out: MIC MRSA 48h): > 500 µM; MIC ([19]; 24 h, read-out: MIC SA 24h): > 500 µM; MIC ([19]; 48 h, read-out: MIC SA 48h): > 500 µM; MIC KP 24h [20]: > 500 µM; MIC KP 48h [20]: > 500 µM
O=C(Cc1ccccc1C(F)(F)F)Nc1ccc(Cl)cn1 [Compound 23]	> 500 µM	> 500 µM	201 µM	> 500 µM	> 500 µM	> 500 µM	> 500 µM	> 500 µM	> 500 µM	> 500 µM	> 500 µM	> 500 µg/mL	> 500 µM	> 500 µM	> 500 µM	> 500 µM	99.3 µM	31.2 µg/mL	500 µM (≈ 157 µg/mL)	500 µM (≈ 157 µg/mL)	SI (selectivity index) [10]: 2.0; MIC ([12]; 24 h, read-out: MIC CK 24h): > 500 µM; MIC ([12]; 48 h, read-out: MIC CK 48h): > 500 µM; MIC ([13]; 24 h, read-out: MIC EC 24h): > 500 µM; MIC ([13]; 48 h, read-out: MIC EC 48h): > 500 µM; MIC ([14]; 24 h, read-out: MIC EF 24h): > 500 µM; MIC ([14]; 48 h, read-out: MIC EF 48h): > 500 µM; MIC ([15]; 24 h, read-out: MIC PA 24h): > 500 µM; MIC ([15]; 48 h, read-out: MIC PA 48h): > 500 µM; MIC ([16]; 24 h, read-out: MIC ACI 24h): > 500 µM; MIC ([16]; 48 h, read-out: MIC ACI 48h): > 500 µM; MIC [17]: > 500 µg/mL; MIC ([18]; 24 h, read-out: MIC MRSA 24h): > 500 µM; MIC ([18]; 48 h, read-out: MIC MRSA 48h): > 500 µM; MIC ([19]; 24 h, read-out: MIC SA 24h): > 500 µM; MIC ([19]; 48 h, read-out: MIC SA 48h): > 500 µM; MIC KP 24h [20]: > 500 µM; MIC KP 48h [20]: > 500 µM
